Data taken from patent US6723710B2, “Compositions for inhibiting arginase activity” (The Trustees of the University of Pennsylvania, priority 1997, dated 2004).
Each block holds one molecule with its values, some of them ahead of it.

How the values were obtained:
[1] = test system: internal anal sphincter (IAS) smooth muscle; test: NANC nerve-mediated relaxation of IAS smooth muscle strips by electrical field stimulation; set-up: species or system opossum (Didelphis virginiana); conditions: L-NNA 3×10^−6 molar
[2] = test system: arginase activities of the various tissues; test: arginase activity in tissue homogenates (liver, IAS, rectum, brain) with NO synthase inhibitor; assay type: biochemical, opossum; conditions: 80 micromolar; basal and in the presence of L-HO-Arg
Procedure: Tissue samples of the opossum internal anal sphincter muscle (IAS), adjoining rectal tissue, liver, and brain were homogenized using an ULTRATURRAX™ tissue homogenizer (Tekamr, Cincinnati, Ohio) in a solution comprising 10 millimolar Tris-HCl, 150 millimolar KCl, and 25 millimolar MnCl2, at pH 7.4. The homogenates were dialyzed overnight against the same solution. […]
Arginase activity in tissue homogenates was evaluated using the radioactive L-[guanidino^14C]arginine assay of Rüegg and Russell (1980, Anal. Biochem. 102:206-212). […] Urea was separated from non-reacted L-[guanidino-^14C]arginine by treatment with 200 μl of 1:1 v/v slurry of DOWEX™ 50W-X8 in water, and quantitated by adding 200 microliters of the supernatant from the DOWEX™ treatment to 3 milliliters of LIQUISCENT™ (National Diagnostics) for liquid scintillation counting in a Beckman LS 5000CE counter. The data were analyzed using double-reciprocal plots of the initial velocity measurements; standard errors were determined by regression analysis.
Thus, it is possible that tissue variations in inhibition of arginase activities by L-HO-Arg could be due to depletion of added L-HO-Arg by conversion to NO. In order to test this possibility, the effects of L-HO-Arg on arginase activities in the tissue homogenates were determined in the presence of the NO synthase inhibitor L-NNA.

[3] = substrate: N=C(N)Nc1cccc([N+](=O)[O-])c1; test: continuous chromogenic arginase assay with substrate 1-nitro-3-guanidinobenzene (compound 18); assay type: biochemical, rat; conditions: other: as substrate, bicine pH 9.0
Procedure: The activity of wild-type arginase was monitored spectrophotometrically using a Pharmacia BIOTECH ULTROSPEC™ 2000. Assays were performed in a solution comprising 100 micromolar MnCl2 and 50 millimolar bicine-NaOH (pH 9.0). […] Eadie-Hofstee plots were used to analyze the data.

effect of L-NNA on arginase activities [2]: no significant effect
Molecule: N=C(NCCC[C@H](N)C(=O)O)N[N+](=O)[O-] [L-NNA, N^ω-nitro-L-arginine]
IAS relaxation in the presence of L-NNA ([1]; 0.5 Hertz EFS): 0±0% | IAS relaxation in the presence of L-NNA ([1]; 1 Hertz EFS): 0.6±0.6% | IAS relaxation in the presence of L-NNA ([1]; 2 Hertz EFS): 1.8±1.1% | IAS relaxation in the presence of L-NNA ([1]; 5 Hertz EFS): 5.4±2.1%

B1: Recombinant rat liver arginase (Rattus norvegicus) (protein)
chain: MSSKPKPIEIIGAPFSKGQPRGGVEKGPAALRKAGLVEKLKETEYNVRDHGDLAFVDVPNDSPFQIVKNPRSVGKANEQLAAVVAETQKNGTISVVLGGDHSMAIGSISGHARVHPDLCVIWVDAHTDINTPLTTSSGNLHGQPVAFLLKELKGKFPDVPGFSWVTPCISAKDIVYIGLRDVDPGEHYIIKTLGIKYFSMTEVDKLGIGKVMEETFSYLLGRKKRPIHLSFDVDGLDPVFTPATGTPVVGGLSYREGLYITEEIYKTGLLSGLDIMEVNPTLGKTPEEVTRTVNTAVALTLSCFGTKREGNHKPETDYLKPPK
notes: made in house
Km [3]: 1.6±0.2 millimolar
